Laboratory results reported in US8658672B2, “HIF-1α activating agent” (University of Seoul Foundation of Industrial and Academic …, priority 2006, dated 2014).

Experiments:
HIF-1α [1] = assay: Effects of CQ and TPEN on HIF-1α stabilization in HepG2 cells (Western blotting); assay type: cell-based, human; conditions: 6 hours, TPEN 5 μM
Protocol: Human HepG2 hepatoma cells (ATCC HB-8065) were cultured under normoxic condition and under hypoxic condition, respectively. HepG2 cells were cultured in MEM (Invitrogen, USA) containing non-essential amino acids and supplemented with 10% FBS (fetal bovine serum: Biowhittaker, USA). The cells were made hypoxic by incubation in anaerobic incubator (Model 1029, Form a Scientific. Inc) at 37° C. with 5% CO2, 10% H2 and 85% N2. The cells were treated with drugs one hour before incubation under hypoxic condition. To separate RNAs, the cells were incubated for 16 hours under hypoxic condition and to separate proteins the cells were cultured for 6 hours under hypoxic condition. […] HIF-1α expression was investigated by Western blotting. Samples from each group proceeded to 8% SDS-PAGE for electrophoresis and were then transferred onto nitrocellulose membrane (Schleicher & Schuell Bioscience, USA). Anti-human HIF-1α antibody (BD Pharmingen, USA) (1:800) was used as a primary antibody and mouse-Ig conjugated horseradish peroxidase (1:3,000) was used as a secondary antibody. Anti-β tubulin antibody (BD, Pharmingen, USA) was used as a control.

HIF-1α [2] = assay: Effects of CQ and TPEN on HIF-1α stabilization in SH-SY5Y cells (Western blotting); assay type: cell-based, human
Protocol: Human SH-SY5Y neuroblastoma cells (ATCC CRL-2266) were cultured under normoxic condition and hypoxic condition, respectively. SH-SY5Y cells were cultured in MEM (Invitrogen, USA) containing non-essential amino acids and supplemented with 10% FBS (fetal bovine serum: Biowhittaker, USA). The cells were made hypoxic by incubation in anaerobic incubator (Model 1029, Form a Scientific Inc) at 37° C. with 5% CO2, 10% H2 and 85% N2. The cells were treated with drugs one hour before hypoxic treatment. To separate RNAs, the cells were incubated for 16 hours under hypoxic condition and to separate proteins the cells were cultured for 6 hours under hypoxic condition. […] HIF-1α expression was investigated by Western blotting. Samples from each group proceeded to 8% SDS-PAGE for electrophoresis and were then transferred onto nitrocellulose membrane (Sigma, USA). Anti-human HIF-1α antibody (BD, Pharmingen, USA) (1:800) was used as a primary antibody and mouse-Ig conjugated horseradish:peroxidase (1:3,000) was used as a secondary antibody. Anti-β tubulin antibody (BD, Pharmingen, USA) was used as a control.

HIF-1α [3] = assay: In vivo HIF-1α ubiquitination in HepG2 cells (Western blotting); assay type: cell-based, human; conditions: normoxic condition, 6 hours, CQ 100 μM, TPEN 5 μM
HIF-1α and CBP = assay: Co-immunoprecipitation of HIF-1α with CBP in HepG2 cells; assay type: cell-based, human; conditions: normoxic, CQ 100 μM, MG132 5 μM 6 hours
Protocol: Total cell extract was prepared by the method of Jaakkola, et al (Jaakkola et al., Science 292:468-472, 2001). For immunoprecipitation, 200 μg of samples of whole cell lysates were reacted with 1 μg of anti-mouse IgG (Santa Cruz Biotechnology, USA) and 10 μl of 0.5% ImmunoPure immobilized protein A/G gel (Pierce, USA) for 30 minutes at 4° C. After removing protein A/G gel, the cleared extracts were mixed with 1 μg of anti-CBP antibody (Santa Cruz Biotechnology, USA). After addition of 15 μl of 0.5% ImmunoPure immobilized protein A/G gel, they were left at 4° C. for 16 hours. The immunoprecipitates were pelleted, washed four times with PBS and resuspended in SDS sample buffer. Samples were then boiled for 5 minutes and run on 8% SDS-polyacrylamide gels, and the proteins were transferred to nitrocellulose membranes by semi-dry transfer (Trans-Blot SD, Bio-Red, Hercules, USA). Co-immunoprecipitated proteins were reacted with anti-human HIF-1α antibody (BD, Pharmingen, USA) and/or anti-CBP antibody and visualized by enhanced chemiluminescence, according to the manufacturer's instruction (Amersham, USA), with anti-mouse or anti-rabbit Ig conjugated with horseradish peroxidase (HRP) as a secondary antibody.

[4] = cited from earlier work

c1ccc(CN(CCN(Cc2ccccn2)Cc2ccccn2)Cc2ccccn2)nc1 [TPEN, tetrakis-(2-pyridylmethyl)ethanediamine]
HIF-1α accumulation (HIF-1α [1]; hypoxic condition, CQ 10, 100 μM, compared with a control): induced HIF-1α accumulation | level of HIF-1α protein (HIF-1α [1]; normoxic condition, CQ 10, 100, 500 μM): increased the level of HIF-1α protein | level of HIF-1α protein (HIF-1α [2]; normoxic, 6 hours, TPEN 5 μM, CQ 10, 100 μM): increased the level of HIF-1α protein | HIF-1α accumulation (HIF-1α [2]; oxygen condition not printed in the sentence (control also accumulated)): induced HIF-1α accumulation | HIF-1α ubiquitination in cells (HIF-1α [3]): inhibited HIF-1α ubiquitination | interaction of HIF-1α with CBP in cells (HIF-1α and CBP): inhibited the interaction between HIF-1α and CBP | pKa value, Ca2+ ([4]; Ca^2+): 3 | pKa value, Fe3+ ([4]; Fe^3+): 14.4 | pKa value, Zn2+ ([4]; Zn^2+): 15.4
